Data published in publication PMC10799085, “A miniaturized mode-of-action profiling platform enables high throughput characterization of the molecular and cellular dynamics of EZH2 inhibition” (Scientific Reports, 2024).
Like-named read-outs stand apart in the source and are kept apart here.

Key:
[1] = molecular target: T1, PRC2/EZH2+/+ (Homo sapiens, UniProt Q15910); assay: Equilibrium probe competition assay (ePCA), TR-FRET; format: binding
T1 construct: purchased Active Motif

[2] = molecular target: T2, PRC2/EZH2Y641N (Homo sapiens, UniProt Q15910, Y641N); assay: as above; format: binding
T2 construct: Synthetic cDNA encoding N-terminal 6His-tagged full length EZH2^Y641N; 6His (N); made in house; host or cells: Sf9 insect cells (baculovirus co-infection)

[3] = molecular target: T1, PRC2/EZH2+/+; assay: Kinetic probe competition assay (kPCA), TR-FRET; format: binding
Method: Biotinylated PRC2 complexes and the fluorescent probe used in TR-FRET assays were generated as described in the supplementary methods section.
For measurements at 25, 30 and 37 °C, the temperature control functionality of the instrument was used.
TR-FRET kPCA traces were exported via Microsoft Excel to GraphPad Prism, where non-specific signals were subtracted and kinetic association competition traces were fitted to the Motulsky–Mahan model “kinetics of competitive binding” to obtain kon (k3), koff (k4) and KD parameters.

[4] = molecular target: T3, PRC2/EZH2 Y111L (Homo sapiens, UniProt Q15910, Y111L); assay: Scintillation proximity assay (SPA) of H3K27 methylation; format: biochemical
T3 construct: N-terminal 6His-tagged full length EZH2^Y641N, EZH2^Y111L; 6His (N); made in house; host or cells: Sf9 insect cells (baculovirus co-infection)
Method: (§1) Assay-ready plates containing 50 nl of compound dilutions and DMSO controls were filled with 2.5 µL enzyme solution and pre-incubated for 15 min. […] Experiments were also performed without pre-incubation of enzyme and compounds. In this case, the substrate solution was added before enzyme. The reaction was stopped using 1.6 µg/µl streptavidin beads (Perkin Elmer) and 700 µM of SAM (Perkin Elmer). The plates were sealed with transparent foil.
(§2) For equilibrium binding competition (ePCA) and SPA enzyme inhibition assays, raw data import, quality control, normalization, and curve fitting to a 4-parameter logistic equation for IC50 determination were performed using the Genedata Screener® software (Genedata AG). ePCA Ki values were either calculated using the Cheng-Prussof equation[68] or with the GraphPad Prism model “One-site—Fit Ki”.

[5] = molecular target: T1, PRC2/EZH2+/+; assay: as above; format: biochemical
Method: as §1, §2

[6] = molecular target: T4, PRC2/EZH2Y111D (Homo sapiens, UniProt Q15910, Y111D); assay: as above; format: biochemical
T4 construct: N-terminal 6His-tagged full length EZH2^Y641N, EZH2^Y111L, EZH2^Y111D; 6His (N); made in house; host or cells: Sf9 insect cells (baculovirus co-infection)
Method: as §1, §2

[7] = molecular target: T2, PRC2/EZH2Y641N; assay: as above; format: biochemical
Method: as §1, §2

[8] = molecular target: T5, PRC2/EZH2Y641N+Y661D (Homo sapiens, UniProt Q15910, Y641N/Y661D); assay: as above; format: biochemical
T5 construct: N-terminal 6His-tagged full length EZH2^Y641N, EZH2^Y111L, EZH2^Y111D, EZH2^Y641N, Y661DEZH2, EZH1; 6His (N); made in house; host or cells: Sf9 insect cells (baculovirus co-infection)
Method: as §1, §2

[9] = tested on: KARPAS-422 cells; assay: Cellular proliferation assay (AlamarBlue, 144 h); format: cell-based; settings: Homo sapiens, KARPAS-422, 144 h, read-out: KARPAS (6-day) Anti-proliferation IC50 (M)
Method: Cell viability was determined by means of the AlamarBlue® reagent (Thermo Fisher Scientific) following instructions from the manufacturer. […] Anti-proliferative IC50s were calculated by fitting the normalized AlamarBlue® fluorescence values to a 4-parameter logistic equation using the Electronic Notebook (ELN) software from IDBS.

[10] = in vitro; format: in vitro ADME; settings: human, Caco-2, pH 7.2

Cc1cc(C)c(CN2CCc3c(Cl)cc(-c4c(C)noc4C)c(Cl)c3C2=O)c(=O)[nH]1 [Compound 14]
Ligand Efficiency ([1]; EZH2+/+ (+ H3K27me3)): 1.6
Ki ([1]; EZH2+/+ (+ H3K27me3), sheet ePCA&kPCA RT, read-out: Equilibrium Ki): 0.907 nM
Ligand Efficiency ([1]; EZH2+/+ (- H3K27me3)): 1.5
Ki ([1]; EZH2+/+ (- H3K27me3), 5 °C, read-out: Ki (Equilibrium)): 1.1 nM
Ki ([1]; EZH2+/+ (- H3K27me3), 15 °C, read-out: Ki (Equilibrium)): 0.81 nM
Ki ([1]; EZH2+/+ (- H3K27me3), 30 °C, read-out: Ki (Equilibrium)): 1.96 nM
Ki ([1]; EZH2+/+ (- H3K27me3), 37 °C, read-out: Ki (Equilibrium)): 2.3 nM
Ki ([1]; EZH2+/+ (- H3K27me3), sheet ePCA&kPCA RT, read-out: Equilibrium Ki): 1.47 nM
Ligand Efficiency ([2]; EZH2Y641N (+ H3K27me3)): 1.6
Ki ([2]; EZH2Y641N (+ H3K27me3), equilibrium, RT sheet): 1.35 nM
Ligand Efficiency ([2]; EZH2Y641N (- H3K27me3)): 1.5
Ki ([2]; EZH2Y641N (- H3K27me3), sheet ePCA&kPCA RT): 2.99 nM
Kinetic Efficiency ([3]; EZH2+/+ (+ H3K27me3)): 3.61E-02
Calculated RT ([3]; EZH2+/+ (+ H3K27me3)): 0.29 h
Kd ([3]; EZH2+/+ (+ H3K27me3), sheet ePCA&kPCA RT, read-out: Kinetic Kd): 0.303 nM
koff ([3]; EZH2+/+ (+ H3K27me3), sheet ePCA&kPCA RT, read-out: Kinetic koff): 0.000323 s⁻¹
kon ([3]; EZH2+/+ (+ H3K27me3), sheet ePCA&kPCA RT, read-out: Kinetic kon): 1.06e+06 M⁻¹ s⁻¹
Kinetic Efficiency ([3]; EZH2+/+ (- H3K27me3)): 2.67E-02
RT (Calculated) ([3]; EZH2+/+ (- H3K27me3), 5 °C): 2.28 h
koff ([3]; EZH2+/+ (- H3K27me3), 5 °C, read-out: koff (Kinetic)): 0.000251 s⁻¹
koff ([3]; EZH2+/+ (- H3K27me3), 5 °C, read-out: koff calc (Calculated)): 0.000122 s⁻¹
kon ([3]; EZH2+/+ (- H3K27me3), 5 °C, read-out: kon (Kinetic)): 111000 M⁻¹ s⁻¹
RT (Calculated) ([3]; EZH2+/+ (- H3K27me3), 15 °C): 0.613 h
Kd ([3]; EZH2+/+ (- H3K27me3), 15 °C, read-out: Kd (Kinetic)): 0.378 nM
koff ([3]; EZH2+/+ (- H3K27me3), 15 °C, read-out: koff (Kinetic)): 0.000211 s⁻¹
kon ([3]; EZH2+/+ (- H3K27me3), 15 °C, read-out: kon (Kinetic)): 559000 M⁻¹ s⁻¹
RT (Calculated) ([3]; EZH2+/+ (- H3K27me3), 30 °C): 0.244 h
Kd ([3]; EZH2+/+ (- H3K27me3), 30 °C, read-out: Kd (Kinetic)): 5.24 nM
koff ([3]; EZH2+/+ (- H3K27me3), 30 °C, read-out: koff (Kinetic)): 0.00307 s⁻¹
koff ([3]; EZH2+/+ (- H3K27me3), 30 °C, read-out: koff calc (Calculated)): 0.00114 s⁻¹
kon ([3]; EZH2+/+ (- H3K27me3), 30 °C, read-out: kon (Kinetic)): 582000 M⁻¹ s⁻¹
RT (Calculated) ([3]; EZH2+/+ (- H3K27me3), 37 °C): 0.14 h
Kd ([3]; EZH2+/+ (- H3K27me3), 37 °C, read-out: Kd (Kinetic)): 2.4 nM
koff ([3]; EZH2+/+ (- H3K27me3), 37 °C, read-out: koff (Kinetic)): 0.00199 s⁻¹
koff ([3]; EZH2+/+ (- H3K27me3), 37 °C, read-out: koff calc (Calculated)): 0.00194 s⁻¹
kon ([3]; EZH2+/+ (- H3K27me3), 37 °C, read-out: kon (Kinetic)): 845000 M⁻¹ s⁻¹
Calculated RT ([3]; EZH2+/+ (- H3K27me3)): 0.21 h
Kd ([3]; EZH2+/+ (- H3K27me3), sheet ePCA&kPCA RT, read-out: Kinetic Kd): 2.27 nM
koff ([3]; EZH2+/+ (- H3K27me3), sheet ePCA&kPCA RT, read-out: Kinetic koff): 0.00201 s⁻¹
kon ([3]; EZH2+/+ (- H3K27me3), sheet ePCA&kPCA RT, read-out: Kinetic kon): 883000 M⁻¹ s⁻¹
Ligand Efficiency - 0' enzyme:inhibitor pre-incubation EZH2 Y111L [4]: 1.0
Ligand Efficiency - 15' enzyme:inhibitor pre-incubation EZH2 Y111L [4]: 1.1
Ligand Efficiency - 60' enzyme:inhibitor pre-incubation EZH2 Y111L [4]: 1.0
IC50 ([4]; 0' enzyme:inhibitor pre-incubation, read-out: SPA Mean IC50 (M) - 0' enzyme:inhibitor pre-incubation EZH2 Y111L): 1.1e-06 M
IC50 ([4]; 15' enzyme:inhibitor pre-incubation, read-out: SPA Mean IC50 (M) - 15' enzyme:inhibitor pre-incubation EZH2 Y111L): 9.6e-07 M
IC50 ([4]; 60' enzyme:inhibitor pre-incubation, read-out: SPA Mean IC50 (M) - 60' enzyme:inhibitor pre-incubation EZH2 Y111L): 1.1e-06 M
Ligand Efficiency - 0' enzyme:inhibitor pre-incubation EZH2+/+ [5]: 1.5
Ligand Efficiency - 15' enzyme:inhibitor pre-incubation EZH2+/+ [5]: 1.5
Ligand Efficiency - 60' enzyme:inhibitor pre-incubation EZH2+/+ [5]: 1.5
IC50 ([5]; 0' enzyme:inhibitor pre-incubation, read-out: SPA Mean IC50 (M) - 0' enzyme:inhibitor pre-incubation EZH2+/+): 4.1e-09 M
IC50 ([5]; 15' enzyme:inhibitor pre-incubation, read-out: SPA Mean IC50 (M) - 15' enzyme:inhibitor pre-incubation EZH2+/+): 1.9e-09 M
IC50 ([5]; 60' enzyme:inhibitor pre-incubation, read-out: SPA Mean IC50 (M) - 60' enzyme:inhibitor pre-incubation EZH2+/+): 1.8e-09 M
Ligand Efficiency - 0' enzyme:inhibitor pre-incubation EZH2Y111D [6]: 0.9
Ligand Efficiency - 15' enzyme:inhibitor pre-incubation EZH2Y111D [6]: 0.9
Ligand Efficiency - 60' enzyme:inhibitor pre-incubation EZH2Y111D [6]: 0.857
IC50 ([6]; 0' enzyme:inhibitor pre-incubation, read-out: SPA Mean IC50 (M) - 0' enzyme:inhibitor pre-incubation EZH2Y111D): 1.3e-05 M
IC50 ([6]; 15' enzyme:inhibitor pre-incubation, read-out: SPA Mean IC50 (M) - 15' enzyme:inhibitor pre-incubation EZH2Y111D): 8.5e-06 M
IC50 ([6]; 60' enzyme:inhibitor pre-incubation, read-out: SPA Mean IC50 (M) - 60' enzyme:inhibitor pre-incubation EZH2Y111D): 1.3e-05 M
IC50 ([7]; 0' enzyme:inhibitor pre-incubation, read-out: SPA Mean IC50 (M) - 0' enzyme:inhibitor pre-incubation hEZH2Y641N): 1.5e-08 M
IC50 ([7]; 15' enzyme:inhibitor pre-incubation, read-out: SPA Mean IC50 (M) - 15' enzyme:inhibitor pre-incubation EZH2Y641N): 1.1e-08 M
IC50 ([7]; 60' enzyme:inhibitor pre-incubation, read-out: SPA Mean IC50 (M) - 60' enzyme:inhibitor pre-incubation EZH2Y641N): 1.2e-08 M
Ligand Efficiency - 0' enzyme:inhibitor pre-incubation hEZH2Y641N ([7]; from SPA pIC50 (1.4*pIC50 / atom count), 0' pre-incubation): 1.4
Ligand Efficiency - 15' enzyme:inhibitor pre-incubation EZH2Y641N ([7]; from SPA pIC50 (1.4*pIC50 / atom count), 15' pre-incubation): 1.4
Ligand Efficiency - 60' enzyme:inhibitor pre-incubation EZH2Y641N ([7]; from SPA pIC50 (1.4*pIC50 / atom count), 60' pre-incubation): 1.4
Ligand Efficiency - 0' enzyme:inhibitor pre-incubation EZH2Y641N+Y661D [8]: 1.0
Ligand Efficiency - 15' enzyme:inhibitor pre-incubation EZH2Y641N+Y661D [8]: 1.0
Ligand Efficiency - 60' enzyme:inhibitor pre-incubation EZH2Y641N+Y661D [8]: 1.0
IC50 ([8]; 0' enzyme:inhibitor pre-incubation, read-out: SPA Mean IC50 (M) - 0' enzyme:inhibitor pre-incubation EZH2Y641N+Y661D): 1.4e-06 M
IC50 ([8]; 15' enzyme:inhibitor pre-incubation, read-out: SPA Mean IC50 (M) - 15' enzyme:inhibitor pre-incubation EZH2Y641N+Y661D): 1.1e-06 M
IC50 ([8]; 60' enzyme:inhibitor pre-incubation, read-out: SPA Mean IC50 (M) - 60' enzyme:inhibitor pre-incubation EZH2Y641N+Y661D): 1.6e-06 M
IC50 [9]: 6.4e-07 M
Papp A→B at 2 h, 2 µM ([10]; 2 µM, 2 h, 37 °C, apical to basolateral, read-out: PK Caco-2 Flux Papp A-B (mean)): 15.4 ×10⁻⁶ cm/s
Papp B→A at 2 h, 2 µM ([10]; 2 µM, 2 h, 37 °C, basolateral to apical, read-out: PK Caco-2 Flux Papp B-A (mean)): 17.4 ×10⁻⁶ cm/s
efflux ratio at 2 h, 2 µM ([10]; Papp B-A divided by Papp A-B, read-out: PK Caco-2 Flux Efflux Ratio (mean)): 1.13
